From patent publication US20250255889A1, “METHODS FOR TREATMENT SELECTION FOR CHRONIC LYMPHOCYTIC LEUKEMIA (CLL)” (The Broad Institute, Inc., priority 2022, published 2025)

Tested on: primary CLL samples (CD19+ and CD5+ cells)
Test: High-throughput dynamic BH3 profiling (HT-DBP): drug-induced apoptotic priming (delta priming), cytochrome c release after BH3 peptide
Type: cell-based, human
Experimental: By “delta priming” is meant the difference in priming of a cell for apoptosis measured in the presence of an agent for treating chronic lymphocytic leukemia relative to priming of the cell in the presence of an inert carrier. In embodiments, the inert carrier is DMSO.
Dynamic BH3 Profiling Dynamic BH3 profiling (DBP) is a drug screening assay that measures the relative priming of cells in a biological sample for cell death by apoptosis in the presence of a specific compound and/or a pro-apoptotic peptide. By “Dynamic BH3 profiling” is meant measuring drug-induced changes in mitochondrial apoptotic priming. Mitochondrial apoptotic priming is a measure of how close to the apoptotic threshold a cell is. A highly primed cell has relatively less anti-apoptotic binding site availability and is closer to the apoptotic threshold than a poorly primed cell, which has more anti-apoptotic availability to buffer an apoptotic assault and is further from the apoptotic threshold. BH3 peptides derived from the BH3 domain of pro-apoptotic BH3-only proteins provoke a response from viable mitochondria. Cytochrome c released from the mitochondria after a short incubation with BH3 peptide is used as a surrogate for priming. In general, the more sensitive a mitochondrion is to a BH3 peptide, the more primed it is. A drug treatment that enhances priming will cause mitochondria to undergo MOMP more easily when incubated with a fixed concentration of a promiscuously binding BH3 peptide, such as BIM BH3 peptide, compared to control-treated cells. See, for example, Potter, D. S. & Letai, A. To prime, or not to prime: that is the question. Cold Spring Harb. Symp. Quant. Biol. 81, 131-140 (2016); Montero, J. et al. Drug-induced death signaling strategy rapidly predicts cancer response to chemotherapy. Cell 160, 977-989 (2015); Daniels, V. W. et al. Metabolic perturbations sensitize triple-negative breast cancers to apoptosis induced by BH3 mimetics. Sci.
Dynamic BH3 profiling and peptides for use therein are described, for example, in Certo, et al., “Mitochondria primed by death signals determine cellular addiction to antiapoptotic BCL-2 family members,” Cancer Cell, 9:351-365 (2006); and in Foight, et al. “Designed BH3 Peptides with High Affinity and Specificity for Targeting Mcl-1 in Cells,” ACS Chemical Biology, 9:1962-1968 (2014), the disclosures of which are incorporated herein by reference in their entireties for all purposes. The DBP assay enables one to compare the response of a patient tumor sample to a specific drug relative to other drugs and relative to an inert control (e.g., DMSO).
To address the challenge of selecting a proper treatment for a chronic lymphocytic leukemia, experiments were undertaken to optimize high-throughput dynamic BH3 profiling (HT-DBP) for evaluation of the drug sensitivities of CLL samples (FIGS. 1, 13, 5A, 5B, 6A, 6B, and 7A-7C).

[1] = peptide BAD 0.3 uM, feature BIRC3
[2] = peptide BAD 0.3 uM, feature EC-m2
[3] = peptide BAD 0.3 uM, feature FBXW7
[4] = peptide BAD 0.3 uM, feature ITIH2
[5] = peptide BAD 0.3 uM, feature MYD88
[6] = peptide BAD 0.3 uM, feature gain_19p13.3
[7] = peptide BAD 0.3 uM, feature i-CLL
[8] = peptide BAD 0.3 uM, feature loss_3p21.31
[9] = peptide BAD 0.3 uM, feature loss_5p15.33
[10] = peptide BAD 0.3 uM, feature loss_7q36.1
[11] = peptide BAD 0.3 uM, feature loss_8p
[12] = peptide BAD 0.3 uM, feature loss_12p13.31a
[13] = peptide BAD 0.3 uM, feature loss_14q32.12
[14] = peptide BAD 0.3 uM, feature loss_17p13.1
[15] = peptide BAD 0.3 uM, feature loss_17p13.3
[16] = peptide BAD 0.3 uM, feature loss_17q11.2
[17] = peptide BIM 0.01 uM, feature EC-i
[18] = peptide BIM 0.01 uM, feature loss_1p36.11
[19] = peptide BIM 0.01 uM, feature loss_3p13
[20] = peptide BIM 0.01 uM, feature loss_10q24.32
[21] = peptide BIM 0.01 uM, feature loss_18q21.2
[22] = peptide BIM 0.01 uM, feature priortrt_Post
[23] = peptide MS1 2.5 uM, feature EC-m4
[24] = peptide PUMA 1 uM, feature loss_1q21.3
[25] = peptide PUMA 1 uM, feature loss_7p22.2
[26] = peptide BIM 0.01 uM, feature loss_15q15.1b
[27] = peptide BIM 0.01 uM, feature loss_20p11.22
[28] = peptide BAD 0.3 uM, feature priortrt_Post
[29] = peptide PUMA 1 uM, feature priortrt_Post
[30] = peptide BAD 0.3 uM, feature M-CLL
[31] = peptide BAD 0.3 uM, feature U-CLL

Cc1sc2c(c1C)C(c1ccc(Cl)cc1)=N[C@@H](CC(=O)OC(C)(C)C)c1nnc(C)n1-2 [JQ1]
0.3327: dprim_pearson_corr [7]
0.3609: dprim_pearson_corr [22]
0.5086: dprim_pearson_corr [3]
0.3877: dprim_pearson_corr [2]
0.507: dprim_pearson_corr [14]
0.3364: dprim_pearson_corr [19]
Resistant: direction [5] | direction [8] | direction [9] | direction [10] | direction [11] | direction [12] | direction [13] | direction [15] | direction (peptide PUMA 1 uM, feature ATM) | direction (peptide PUMA 1 uM, feature EC-i) | direction (peptide PUMA 1 uM, feature MYD88) | direction (peptide PUMA 1 uM, feature gain_16p11.2) | direction [24] | direction (peptide PUMA 1 uM, feature loss_2q31.1) | direction (peptide PUMA 1 uM, feature loss_3p21.31) | direction (peptide PUMA 1 uM, feature loss_5p15.33) | direction [25] | direction (peptide PUMA 1 uM, feature loss_7q36.1) | direction (peptide PUMA 1 uM, feature loss_8p) | direction (peptide PUMA 1 uM, feature loss_10p12.2) | direction (peptide PUMA 1 uM, feature loss_12p13.31a) | direction (peptide PUMA 1 uM, feature loss_14q32.12) | direction (peptide PUMA 1 uM, feature loss_16q22.1) | direction (peptide PUMA 1 uM, feature loss_17p13.3)
Sensitive: direction (Feature EC-i) | direction (Feature FBXW7) | direction [1] | direction [2] | direction [3] | direction [4] | direction [6] | direction [7] | direction [14] | direction [16] | direction [17] | direction [18] | direction [19] | direction [20] | direction [21] | direction [22] | direction [23] | direction (peptide PUMA 1 uM, feature loss_1p36.11) | direction (peptide PUMA 1 uM, feature loss_3p13) | direction (peptide PUMA 1 uM, feature loss_10q24.32) | direction (peptide PUMA 1 uM, feature loss_18q21.2)
−0.3996: dprim_pearson_corr [9] | dprim_pearson_corr [12] | dprim_pearson_corr [15]
0.3826: dprim_pearson_corr [17]
0.3901: dprim_pearson_corr [23]
0.6355: dprim_pearson_corr [1] | dprim_pearson_corr [4] | dprim_pearson_corr [16]
−0.3438: dprim_pearson_corr [5] | dprim_pearson_corr [8] | dprim_pearson_corr [10] | dprim_pearson_corr [11] | dprim_pearson_corr [13]
0.4365: dprim_pearson_corr [18] | dprim_pearson_corr [20] | dprim_pearson_corr [21]
0.359: dprim_pearson_corr [6]

Nc1cccc2c1CN(C1CCC(=O)NC1=O)C2=O (stereo not drawn) [Lenalidomide]
Sensitive: direction (peptide MS1 2.5 uM, feature CNOT3)
Resistant: direction (peptide BAD 0.3 uM, feature loss_10q24.32) | direction [26] | direction [27]

NC1(c2ccc(-c3nc4ccn5c(=O)[nH]nc5c4cc3-c3ccccc3)cc2)CCC1 [MK-2206]
Resistant: direction (Feature priortrt_Post) | direction (peptide BAD 0.3 uM, feature EC-i) | direction (peptide BAD 0.3 uM, feature IGLV321_R110) | direction (peptide BAD 0.3 uM, feature RPS15) | direction (peptide BAD 0.3 uM, feature loss_6q) | direction [28] | direction (peptide MS1 2.5 uM, feature EC-i) | direction (peptide MS1 2.5 uM, feature IGLV321_R110) | direction (peptide MS1 2.5 uM, feature RPS15) | direction (peptide MS1 2.5 uM, feature loss_6q) | direction [29]
Sensitive: direction (peptide BIM 0.01 uM, feature BIRC3) | direction (peptide BIM 0.01 uM, feature ITIH2) | direction (peptide BIM 0.01 uM, feature loss_9p21.3) | direction (peptide BIM 0.01 uM, feature loss_17q11.2)

CCC[C@H](N[C@H]1CCc2cc(F)cc(F)c2C1)C(=O)Nc1cn(C(C)(C)CNCC(C)(C)C)cn1 [Nirogacestat]
Resistant: direction (peptide BAD 0.3 uM, feature loss_1p36.11) | direction (peptide BAD 0.3 uM, feature loss_3p13) | direction (peptide BAD 0.3 uM, feature loss_18q21.2)
Sensitive: direction (peptide BIM 0.01 uM, feature EC-m2) | direction (peptide BIM 0.01 uM, feature tri_12) | direction (peptide PUMA 1 uM, feature BIRC3) | direction [24] | direction [25] | direction (peptide PUMA 1 uM, feature loss_9p21.3) | direction (peptide PUMA 1 uM, feature loss_17q11.2)

COc1ccc(C2=N[C@@H](c3ccc(Cl)cc3)[C@@H](c3ccc(Cl)cc3)N2C(=O)N2CCNC(=O)C2)c(OC(C)C)c1 [Nutlin-3]
most sensitive: drug-induced apoptotic priming by expression cluster (EC-m1)
0.3373: dprim_pearson_corr [23]
−0.4093: dprim_pearson_corr [31]
Sensitive: direction [30] | direction [23] | direction (peptide PUMA 1 uM, feature EC-m4)
0.4093: dprim_pearson_corr [30]
high priming: drug-induced apoptotic priming (across CLL subtypes, 65 primary CLL samples, 20 hours drug)
Resistant: direction (Feature FBXW7) | direction (Feature priortrt_Post) | direction [31] | direction [28] | direction (peptide PUMA 1 uM, feature FBXW7) | direction (peptide PUMA 1 uM, feature loss_17p13.1) | direction [29]
−0.4166: dprim_pearson_corr [28]

CC(C)c1cc(C(=O)N2Cc3ccc(CN4CCN(C)CC4)cc3C2)c(O)cc1O [Onalespib]
Resistant: direction [26] | direction [27] | direction (peptide PUMA 1 uM, feature loss_6q21)
Sensitive: direction (peptide BAD 0.3 uM, feature loss_1q42.13) | direction (peptide BAD 0.3 uM, feature loss_13q14.13) | direction (peptide BAD 0.3 uM, feature loss_16p11.2) | direction (peptide MS1 2.5 uM, feature loss_19p13.11)
